Source: patent publication US10239887B2, “Positive allosteric modulators of the muscarinic acetylcholine receptor M4” (Vanderbilt University, priority 2016, dated 2019)
Where a name gives a salt, the structure may show the parent alone.

Target: T1, human mAChR M4 (Homo sapiens, UniProt P08173)
T1 sequence (P08173 1-479): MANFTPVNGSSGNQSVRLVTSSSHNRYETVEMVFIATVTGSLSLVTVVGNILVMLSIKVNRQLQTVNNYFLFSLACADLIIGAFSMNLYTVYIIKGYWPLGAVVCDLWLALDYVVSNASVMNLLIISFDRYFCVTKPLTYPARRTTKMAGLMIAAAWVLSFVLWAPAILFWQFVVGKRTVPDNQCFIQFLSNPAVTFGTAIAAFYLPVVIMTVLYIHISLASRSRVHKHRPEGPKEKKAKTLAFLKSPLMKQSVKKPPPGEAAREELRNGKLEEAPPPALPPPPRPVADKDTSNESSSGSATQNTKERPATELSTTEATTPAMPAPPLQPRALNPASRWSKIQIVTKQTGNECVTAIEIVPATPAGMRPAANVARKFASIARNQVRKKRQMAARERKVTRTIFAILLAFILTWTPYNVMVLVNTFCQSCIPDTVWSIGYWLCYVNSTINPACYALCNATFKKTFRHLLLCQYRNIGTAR
Experiment: mAChR M4 cell-based functional assay (calcium flux), human M4
Settings: for Emax: % ACh maximum at 30 μM

[1] = Human M4 EC50 (nM), Table 10, calcium flux, PAM activity with EC20 acetylcholine
[2] = Human M4 EC50, CHO-K1 hM4-Gqi5 cells, calcium flux, increase in EC20 acetylcholine response
[3] = Human M4 EC50 (nM), Table 11, calcium flux, PAM activity with EC20 acetylcholine

| EC50 [1] [nM] | Emax (Table 10) [%] | SMILES | further results |
| --- | --- | --- | --- |
| 255 | 74.6 | Cc1nnc2sc3c(NCc4ccc(C(C)(C)O)c(F)c4)ncnc3c2c1C [Compound 112, 2-[4-[[(3,4-dimethylpyrimido [4′,5′:4,5]thieno[2,3-c]pyridazin-8-yl)amino]methyl]-2-fluoro-phenyl]propan-2-ol] |  |
| 395 | 61.4 | Cc1nnc2sc3c(N4CC(N)C4)ncnc3c2c1C [Compound 95, 1-(3,4-dimethylpyrimido [4′,5′:4,5]thieno[2,3-c]pyridazin-8-yl) azetidin-3-amine] |  |
| 463 | 88.4 | COCC1CN(C(=O)c2ccc(CNc3ncnc4c3sc3nnc(C)c(C)c34)cc2)C1 [Compound 127, [4-[[(3,4-dimethylpyrimido [4′,5′:4,5]thieno[2,3-c]pyridazin-8-yl)amino]methyl]phenyl]-[3-(methoxymethyl)azetidin-1-yl] methanone] |  |
| 773 | 95.2 | Cc1nnc2sc3c(NCc4ccc(-c5cccnc5F)cc4)ncnc3c2c1C [Compound 79, N-(4-(2-fluoropyridin-3-yl)benzyl)-3,4-dimethylpyrimido [4′,5′:4,5]thieno[2,3-c] pyridazin-8-amine] |  |
| 5630 | 48.3 | Cc1nnc2sc3c(NC4CC5(C4)CN(c4ncc(Cl)cc4Cl)C5)ncnc3c2c1C [Compound 162, N-[2-(3,5-dichloro-2-pyridyl)-2-azaspiro[3.3]heptan-6-yl]-3,4-dimethyl-pyrimido[4′,5′:4,5]thieno [2,3-c]pyridazin-8-amine] |  |
| 340 | 107 | Cc1nnc2sc3c(NCc4ccc(F)c(C(=O)NC5CC(F)(F)C5)c4)ncnc3c2c1C [Compound 184, N-(3,3-difluorocyclobutyl)-5-[[(3,4-dimethylpyrimido [4′,5′:4,5]thieno[2,3-c]pyridazin-8-yl)amino]methyl]-2-fluoro-benzamide] |  |
| 1040 | 54 | Cc1nnc2sc3c(N4CC[C@@H](N)C4)ncnc3c2c1C [Compound 99, (3R)-1-(3,4-dimethylpyrimido [4′,5′:4,5]thieno[2,3-c]pyridazin-8-yl)pyrrolidin-3-amine dihydrochloride] |  |
| 151 | 50 | CCC(C)(O)c1ccc(CNc2ncnc3c2sc2nnc(C)c(C)c23)cc1 (centres unmarked) [Compound 116, 2-[4-[[(3,4-dimethylpyrimido [4′,5′:4,5]thieno[2,3-c]pyridazin-8-yl)amino]methyl]phenyl]butan-2-ol] |  |
| 69 | 101 | Cc1nnc2sc3c(NCc4ccc(N5CCNCC5)cc4)ncnc3c2c1C [Compound 118, 3,4-dimethyl-N-[(4-piperazin-1-ylphenyl)methyl]pyrimido [4′,5′:4,5]thieno[2,3-c] pyridazin-8-amine] |  |
| 100 | 86 | Cc1nnc2sc3c(NCc4ccc(C(=O)NC5CC5)cc4)ncnc3c2c1C [Compound 133, N-cyclopropyl-4-[[(3,4-dimethylpyrimido [4′,5′:4,5]thieno[2,3-c]pyridazin-8-yl)amino]methyl]benzamide] |  |
| 101 | 82.1 | CNC(=O)c1ccc(CNc2ncnc3c2sc2nnc(C)c(C)c23)cc1 [Compound 145, 4-[[(3,4-dimethylpyrimido [4′,5′:4,5]thieno[2,3-c]pyridazin-8-yl)amino]methyl]-N-methyl-benzamide] |  |

Further lines, the compound ahead of its results:

| SMILES | EC50 [1] [nM] | Emax (Table 10) [%] | further results |
| --- | --- | --- | --- |
| Cc1nc2oc3c(NCc4ccc(C(C)(C)O)cc4)ncnc3c2c(C)c1Cl [Compound 39, 2-[4-[[(8-chloro-7,9-dimethyl-pyrido[3′,2′:4,5]furo[3,2-d]pyrimidin-4-yl)amino]methyl]phenyl] propan-2-ol] |  |  | Emax (Human M4): 61.8%; EC50 [2]: 110 nM |
| Cc1cc(C)c2c(n1)sc1c(N3CCCC3)ncnc12 [Compound 199, 7,9-dimethyl-4-pyrrolidin-1-yl-pyrido[3′,2′:4,5] thieno[3,2-d]pyrimidine] | 277 | 67.3 |  |
| COCC1CN(c2ncnc3c2sc2ncc(Cl)c(C)c23)C1 [Compound 218, 8-chloro-4-[3-(methoxymethyl)azetidin-1-yl]-9-methyl-pyrido [3′,2′:4,5]thieno[2,3-d] pyrimidine] | 1020 | 51.3 |  |
| Cc1nnc2sc3c(NCc4ccc(-c5cccnc5F)cc4)ncnc3c2c1C [Compound 29, N-(4-(2-fluoropyridin-3-yl)benzyl)-3,4-dimethylpyrimido [4′,5′:4,5]thieno[2,3-c] pyridazin-8-amine] |  |  | Emax (Human M4): 61%; EC50 [2]: 4050 nM |
| COc1ccc(CNc2ncnc3c2oc2nnc(C)c(C)c23)cc1 [Compound 309, N-[(4-methoxyphenyl)methyl]-3,4-dimethyl-pyrimido [4′,5′:4,5]furo[2,3-c]pyridazin-8-amine] | 403 | 73.6 |  |
| COc1cc(CNc2ncnc3c2sc2ncc(Cl)c(C)c23)cc(OC)c1 [Compound 230, 8-chloro-N-[(3,5-dimethoxyphenyl)methyl]-9-methyl-pyrido [3′,2′:4,5]thieno[3,2-d] pyrimidin-4-amine] |  | 37.3 | EC50 (Human M4 EC50 (nM), Table 10, unit μM (bounds)): > 10000 nM |
| Cc1nnc2oc3c(N4CC5(COC5)C4)ncnc3c2c1C [Compound 307, 3,4-dimethyl-8-(2-oxa-6-azaspiro[3.3]heptan-6-yl)pyrimido[4′,5′:4,5] furo[2,3-c]pyridazine] | 4840 | 46.1 |  |
| Cc1cc(C)c2c(n1)oc1c(NC3CC3c3ccc(F)c(F)c3)ncnc12 (centres unmarked) [Compound 61, hydrochloride] |  |  | Emax (Human M4): 56.3%; EC50 [2]: 3380 nM |
| COCC1CN(c2ncnc3c2sc2nc(C)cc(C)c23)C1 [Compound 194, 4-[3-(methoxymethyl)azetidin-1-yl]-7.9-dimethyl-pyrido [3′,2′:4,5]thieno[3,2-d] pyrimidine] | 762 | 88.7 |  |
| Cc1cc(O[C@H]2CCN(c3ncnc4c3sc3nnc(C)c(C)c34)C2)ccn1 [Compound 330, 3,4-dimethyl-8-[(3S)-3-[(2-methyl-4-pyridyl)oxy]pyrrolidin-1-yl]pyrimido [4′,5′:4,5]thieno[2,3-c] pyridazine] |  |  | EC50 [3]: 111 nM; Emax (Table 11): 74.4% |
| Cc1nnc2sc3c(N4CC[C@@H](C(C)(C)O)C4)ncnc3c2c1C [Compound 353, 2-[(3R)-1-(3,4-dimethylpyrimido [4′,5′:4,5]thieno[2,3-c]pyridazin-8-yl)pyrrolidin-3-yl]propan-2-ol] |  |  | EC50 [3]: 321 nM; Emax (Table 11): 48.8% |
| Cc1nnc2sc3c(N4CC(Oc5cccc(F)c5)C4)ncnc3c2c1C [Compound 32, 8-(3-(3-fluorophenoxy)azetidin-1-yl)-3,4-dimethylpyrimido [4′,5′:4,5]thieno[2,3-c] pyridazine] |  |  | Emax (Human M4): 62%; EC50 [2]: 1760 nM |
| Cc1nc2sc3c(NCC4CCOC4)ncnc3c2c(C)c1Cl (centres unmarked) [Compound 273, 8-chloro-7,9-dimethyl-N-(tetrahydrofuran-3-ylmethyl) pyrido[3′,2′:4,5]thieno [3,2-d]pyrimidin-4-amine dihydrochloride] | 1840 | 59.5 |  |
| Cc1nnc2oc3c(NCc4cccc(C5(O)CCC5)c4)ncnc3c2c1C [Compound 66, 1-[3-[[(3,4-dimethylpyrimido [4′,5′:4,5]furo[2,3-c]pyridazin-8-yl)amino]methyl]phenyl]cyclobutanol] |  |  | Emax (Human M4): 61.1% |
| Cc1nc2sc3c(N4CC(F)(F)C4)ncnc3c2c(C)c1Cl [Compound 261, 8-chloro-4-(3,3-difluoroazetidin-1-yl)-7,9-dimethyl-pyrido [3′,2′:4,5]thieno[3,2-d] pyrimidine hydrochloride] | 3920 | 76.2 |  |
| Cc1nnc2sc3c(NC4CC(O)(c5ccc(F)cc5)C4)ncnc3c2c1C (centres unmarked) [Compound 339, 3-[(3,4-dimethylpyrimido [4′,5′:4,5]thieno[2,3-c]pyridazin-8-yl)amino]-1-(4-fluorophenyl) cyclobutanol] |  |  | EC50 [3]: 4900 nM; Emax (Table 11): 50.9% |
| COc1cc(F)c(CNc2ncnc3c2oc2nnc(C)c(C)c23)c(F)c1 [Compound 310, N-[(2,6-difluoro-4-methoxy-phenyl)methyl]-3,4-dimethyl-pyrimido[4′,5′:4,5] furo[2,3-c]pyridazin-8-amine] | 845 | 53.2 |  |
| Cc1nnc2oc3c(NC4CN(c5ncc(F)cn5)C4)ncnc3c2c1C [Compound 63, N-[1-(5-Fluoropyrimidin-2-yl)azetidin-3-yl]-3,4-dimethyl-pyrimido[4′,5′:4,5]furo[2,3-c]pyridazin-8-amine] |  |  | Emax (Human M4): 36.8% |
| Cc1c(Cl)cnc2sc3c(N4CCC4)ncnc3c12 [Compound 221, 4-(azetidin-1-yl)-8-chloro-9-methyl-pyrido[3′,2′:4,5] thieno[3,2-d] pyrimidine] | 867 | 40.6 |  |
| CC(=O)N1CC(Nc2ncnc3c2sc2nnc(C)c(C)c23)C1 [Compound 35, 1-(3-((3,4-dimethylpyrimido [4′,5′:4,5]thieno[2,3-c]pyridazin-8-yl)amino)azetidin-1-yl)ethan-1-one] |  |  | Emax (Human M4): 79%; EC50 [2]: 53 nM |
| Cc1nnc2oc3c(NC4CC4)ncnc3c2c1C [Compound 302, N-cyclopropyl-3,4-dimethyl-pyrimido [4′,5′:4,5]furo[2,3-c]pyridazin-8-amine] | 1300 | 66.5 |  |
